# Data taken from article PMC8175350, “Drug repurposing screens identify chemical entities for the development of COVID-19 interventions” (Nature Communications, 2021).
# Counter-ions that a name gives are not always drawn. Like-named read-outs stand apart in the source and are kept apart here.
# Experiments:
# [1] = tested on: SARS-CoV-2; test: microbe, parasite or virus in culture; type: cell-based; conditions: for Emax: Severe acute respiratory syndrome coronavirus 2, Calu-3, 48 h
# [2] = in vitro; conditions: human
# [3] = tested on: HeLa-ACE2 cells; test: cells; conditions: Homo sapiens; for Emax: HeLa-ACE2, 24 h, read-out: HeLa-ACE2 cell count Sinf Average
# [4] = tested on: SARS-CoV-2; test: microbe, parasite or virus in culture; type: cell-based; conditions: for Emax: Severe acute respiratory syndrome coronavirus 2, HeLa-ACE2, 24 h, curve-fit effect at infinite concentration, average, read-out: HeLa-ACE2 CoV-2 Sinf Average
# [5] = tested on: Calu-3 cells; test: cells; conditions: Homo sapiens; for Emax: Calu-3, 48 h
# [6] = tested on: Calu-3 cells
# [7] = Uninfected HeLa-ACE2 24 h live/dead cytotoxicity counter screen; type: cell-based, human; conditions: human, uninfected HeLa-ACE2 cells
# [8] = tested on: HeLa-ACE2 cells; test: as above; type: cell-based, human; conditions: for HeLa-ACE2 uninfected cytotoxicity Sinf Average (%): Sinf average of the curves; for HeLa-ACE2 uninfected cytotoxicity Sinf Average: curve-fit effect at infinite concentration
# [9] = tested on: SARS-CoV-2; test: microbe, parasite or virus in culture; type: cell-based; conditions: HeLa-ACE2
# [10] = curve-fit effect at infinite concentration, average, read-out: Calu-3 CoV-2 Sinf Average
# [11] = Severe acute respiratory syndrome coronavirus 2, Calu-3, unrounded geometric mean, read-out: Calu-3 CoV-2 EC50 GeoMean
# [12] = Calu-3 uninfected cytotoxicity CC50 GeoMean
# [13] = read-out: Calu-3 cell count Sinf Average
# [14] = unrounded geometric mean, read-out: HeLa-ACE2 uninfected cytotoxicity CC50 GeoMean
# [15] = Sinf average of the curves, read-out: Calu-3 CoV-2 Sinf Average (%)
# [16] = Severe acute respiratory syndrome coronavirus 2, Calu-3, geometric mean of replicates, read-out: Calu-3 CoV-2 EC50 GeoMean
# [17] = HeLa-ACE2, read-out: HeLa-ACE2 cell count EC50 GeoMean (µM), geometric mean of replicates
# [18] = Severe acute respiratory syndrome coronavirus 2, HeLa-ACE2, geometric mean of replicates, read-out: HeLa-ACE2 CoV-2 EC50 GeoMean
# [19] = read-out: Calu-3 cell count Sinf Average (%)
# [20] = Calu-3, read-out: Calu-3 cell count EC50 GeoMean (µM), geometric mean of replicates
# [21] = geometric mean of replicates, read-out: HeLa-ACE2 uninfected cytotoxicity CC50 GeoMean
# [22] = Calu-3 uninfected cytotoxicity CC50 GeoMean (µM)
# [23] = Calu-3 uninfected cytotoxicity CC50 GeoMean, unrounded geometric mean
# [24] = HeLa-ACE2, read-out: HeLa-ACE2 cell count EC50 GeoMean, unrounded geometric mean
# [25] = Severe acute respiratory syndrome coronavirus 2, HeLa-ACE2, unrounded geometric mean, read-out: HeLa-ACE2 CoV-2 EC50 GeoMean
# [26] = Calu-3, read-out: Calu-3 cell count EC50 GeoMean, unrounded geometric mean
# [27] = uninfected cells, Fig. 2b group, read-out: HeLa-ACE2 CC50
# [28] = Severe acute respiratory syndrome coronavirus 2, Calu-3, reconfirmed hits, read-out: Calu-3 SARS-CoV-2 EC50
# [29] = Severe acute respiratory syndrome coronavirus 2, HeLa-ACE2, reconfirmed hits, read-out: HeLa-ACE2 SARS-CoV-2 EC50
# [30] = reconfirmed hits, read-out: HeLa-ACE2 Uninf. cells CC50
Structure (SMILES),"Emax [1, 10]","EC50 [1, 11]","Emax [5, 13]","CC50 at 24 h [7, 14]","Emax [1, 15]","EC50 [1, 16]","EC50 [3, 17]","EC50 [4, 18]","Emax [5, 19]","EC50 [5, 20]","CC50 at 24 h [7, 21]","CC50 at 48 h [2, 22]",uninfected Calu-3 CC50 [μM] [6],"EC50 [3, 24]","EC50 [4, 25]","EC50 [5, 26]",further results
CCc1ccc(C2=CC(C)(C)Sc3ccc(C#Cc4ccc(C(=O)O)cc4)cc32)cc1 [AGN-194310],85%,0.597 µM,100%,> 39.8 µM,,,,,,,,,,,,,"CC50 [2, 12]: > 29.9 µM; EC50 ([3]; HeLa-ACE2, read-out: HeLa-ACE2 cell count EC50 GeoMean): > 9.59 µM; EC50 ([4]; Severe acute respiratory syndrome coronavirus 2, HeLa-ACE2, read-out: HeLa-ACE2 CoV-2 EC50 GeoMean): > 9.59 µM; EC50 ([5]; Calu-3, read-out: Calu-3 cell count EC50 GeoMean): > 7.77 µM; uninfected Calu-3 CC50 [6]: > 29.867 ×÷ 1 (n=3) μM; Calu-3 uninfected cytotoxicity Sinf Average ([6]; human): -100%"
CCCCCC[C@H]1C(=O)O[C@H](C)[C@H](NC(=O)c2cccc(NC=O)c2O)C(=O)O[C@@H](C)[C@@H]1OC(=O)CC(C)C [Antimycin A],,,,,93%,< 0.0277 µM,> 9.59 µM,> 9.59 µM,48%,0.22 µM,> 39.8 µM,,,,,,Calu-3 uninfected cytotoxicity CC50 GeoMean ([6]; human): > 0.6084 µM; uninfected Calu-3 CC50 [μM] ([6]; human): > 0.608 ×÷ 246.09 (n=2) μM; HeLa-ACE2 uninfected cytotoxicity Sinf Average (%) [8]: -100%
O=c1[nH]c2ccc(C(F)(F)F)cc2c(-c2cc(Cl)ccc2O)c1CCO [BMS-223131],,,,,100%,5.14 µM,> 9.59 µM,> 9.59 µM,100%,> 9.98 µM,21.4 µM,> 29.9 µM,> 29.867 ×÷ 1 (n=3) μM,,,,"Calu-3 uninfected cytotoxicity Sinf Average (%) ([6]; human, 48 h): -100%; HeLa-ACE2 uninfected cytotoxicity Sinf Average (%) [8]: -100%"
CN(C)C(=O)COC(=O)Cc1ccc(OC(=O)c2ccc(NC(=N)N)cc2)cc1 [Camostat mesylate],89%,0.0536 µM,78%,> 39.8 µM,,,,,,,,,,> 9.59 µM,> 9.59 µM,0.0913 µM,"CC50 [2, 23]: > 29.9 µM"
C[C@@H]1C[C@@H]([C@H](O)CC2CC(=O)NC(=O)C2)C(=O)[C@@H](C)C1 [Cycloheximide],98%,0.195 µM,50%,1.47 µM,,,,,,,,,,> 9.44 µM,0.634 µM,0.268 µM,"CC50 [2, 23]: > 2.43 µM; Emax [3]: 100%; Emax [4]: 101%; Calu-3 uninfected cytotoxicity Sinf Average ([6]; human): -39%; HeLa-ACE2 uninfected cytotoxicity Sinf Average [8]: -80%; CC50 at 24 h [7, 27]: ≤ 3 µM"
CNC(=O)n1ccc2cc(Oc3ccnc(NC(=O)c4ccc(C5CCN(CCO)CC5)cc4)c3)c(OCCOC)cc21 [E-7090],62%,0.753 µM,73%,21.2 µM,,,,,,,,,,> 9.59 µM,2.64 µM,> 2.59 µM,"CC50 at 48 h [2, 12]: 15 µM; Emax [4]: 100%; uninfected Calu-3 CC50 [6]: 14.98 ×÷ 1.32 (n=3) μM; Calu-3 uninfected cytotoxicity Sinf Average ([6]; human, 48 h): -97%; HeLa-ACE2 uninfected cytotoxicity Sinf Average [8]: -100%"
CC[C@H]1CN2CCc3cc(OC)c(OC)cc3[C@@H]2C[C@@H]1C[C@H]1NCCc2cc(OC)c(OC)cc21 [Emetine],100%,0.444 µM,78%,0.34 µM,,,,,,,,,,0.783 µM,0.0601 µM,> 3.56 µM,"CC50 [2, 23]: > 8.87 µM; Emax [3]: 98%; Emax [4]: 100%; Calu-3 uninfected cytotoxicity Sinf Average ([6]; human): -47%; HeLa-ACE2 uninfected cytotoxicity Sinf Average [8]: -99%; CC50 at 24 h [7, 27]: ≤ 3 µM"
N#Cc1cccc(C(C(=O)NCC(c2ccccc2)c2ccccc2)N(CCc2c[nH]cn2)C(=O)c2ccccc2C(=O)c2ccccc2)c1 (stereo not shown) [GENZ-29155],,,,,79%,> 4.66 µM,> 9.59 µM,> 9.59 µM,,> 9.98 µM,> 38.5 µM,> 29.9 µM,> 29.867 ×÷ 1 (n=3) μM,,,,"HeLa-ACE2 CoV-2 Sinf Average (%) ([4]; Sinf average of the curves): -67%; Calu-3 uninfected cytotoxicity Sinf Average (%) ([6]; human, 48 h): 0%; HeLa-ACE2 uninfected cytotoxicity Sinf Average (%) [8]: -67%"
CCCCCCCC/C=C/CCCCCCCC(=O)OC[C@H]1O[C@@H](n2ccc(N)nc2=O)C(F)(F)[C@@H]1O [Gemcitabine elaidate],90%,0.324 µM,48%,< 0.00582 µM,,,,,,,,,,< 0.0122 µM,> 9.59 µM,> 3.7 µM,"CC50 at 48 h [2, 12]: > 29.9 µM; Emax [3]: 51%; uninfected Calu-3 CC50 [6]: > 29.867 ×÷ 1 (n=3) μM; Calu-3 uninfected cytotoxicity Sinf Average ([6]; human, 48 h): -100%; HeLa-ACE2 uninfected cytotoxicity Sinf Average [8]: -53%; CC50 at 24 h [7, 27]: ≤ 3 µM"
CSc1ccc(CN2CCCC(Nc3ccc4[nH]ncc4c3)C2)cc1 (stereo not shown) [INS-117548],,,,,77%,> 3.55 µM,> 9.59 µM,> 9.59 µM,55%,0.31 µM,> 39.8 µM,> 29.9 µM,> 29.875 ×÷ 1 (n=2) μM,,,,"Calu-3 uninfected cytotoxicity Sinf Average (%) ([6]; human, 48 h): -92%; HeLa-ACE2 uninfected cytotoxicity Sinf Average (%) [8]: -100%"
C[C@]12O[C@H](C[C@]1(O)CO)n1c3ccccc3c3c4c(c5c6ccccc6n2c5c31)CNC4=O [Lestaurtinib],91%,0.674 µM,100%,0.758 µM,,,,,,,,,,0.614 µM,0.546 µM,> 4.71 µM,"CC50 [2, 23]: > 20.1 µM; Emax [3]: 102%; Emax [4]: 99%; Calu-3 uninfected cytotoxicity Sinf Average ([6]; human): -98%; HeLa-ACE2 uninfected cytotoxicity Sinf Average [8]: -100%; CC50 at 24 h [7, 27]: ≤ 3 µM"
N=C(N)Nc1ccc(C(=O)Oc2ccc(S(N)(=O)=O)cc2)cc1 [Ono-3307],,,,,96%,1.6 µM,> 9.59 µM,> 9.59 µM,99%,3.58 µM,> 39.8 µM,> 29.9 µM,> 29.867 ×÷ 1 (n=3) μM,,,,"EC50 [1, 28]: 1.6 µM; CC50 at 48 h ([2]; Calu-3 Uninf. cells CC50 (µM)): > 30 µM; EC50 [4, 29]: > 9.6 µM; CC50 at 24 h [7, 30]: > 40 µM"
C=CC(=O)Nc1cc(Nc2nccc(-c3cn(C)c4ccccc34)n2)c(OC)cc1N(C)CCN(C)C [Osimertinib],,,,,,,,,,,,,,,,,SI in Calu-3 ([1]; CC50/EC50): < 2; EC50 ratio between the standard 24 h and the TOA assay [9]: > 8
CC(=O)N1C[C@H](O)C[C@H]1C(=O)N[C@@H](CCCNC(=N)N)C(=O)c1nc2ccccc2s1 [RWJ-56423],,,,,89%,1.23 µM,> 9.59 µM,> 9.59 µM,100%,2.85 µM,> 39.8 µM,> 29.9 µM,> 29.867 ×÷ 1 (n=3) μM,,,,"EC50 [1, 28]: 1.23 µM; CC50 at 48 h ([2]; Calu-3 Uninf. cells CC50 (µM)): > 30 µM; EC50 [4, 29]: > 9.6 µM; CC50 at 24 h [7, 30]: > 40 µM"
N=C(N)c1ccc2cc(OC(=O)c3ccc(CNC(=O)CCCC(=O)O)o3)ccc2c1 [TO-195],,,,,91%,0.657 µM,> 9.59 µM,> 6.42 µM,84%,1.16 µM,> 39.8 µM,> 29.9 µM,> 29.867 ×÷ 1 (n=3) μM,,,,"EC50 [1, 28]: 0.657 µM; CC50 at 48 h ([2]; Calu-3 Uninf. cells CC50 (µM)): > 30 µM; EC50 [4, 29]: > 6.4 µM; Calu-3 uninfected cytotoxicity Sinf Average (%) ([6]; human, 48 h): -100%; CC50 at 24 h [7, 30]: > 40 µM"
NC(N)=Nc1ncc(Cl)c2ccc(-c3cccc(C(=O)O)c3)cc12 [UK-356202],,,,,85%,1.92 µM,> 9.59 µM,> 9.59 µM,98%,> 7.28 µM,> 39.8 µM,> 29.9 µM,> 29.875 ×÷ 1 (n=2) μM,,,,
CC(=N)N1CCC(Oc2ccc(N(Cc3ccc4ccc(C(=N)N)cc4c3)S(=O)(=O)CC(=O)O)cc2)CC1 [YM 60828],,,,,,3.18 µM,> 9.59 µM,> 9.59 µM,100%,6.81 µM,> 39.8 µM,> 29.9 µM,> 29.867 ×÷ 1 (n=3) μM,,,,
